Data set [1] addresses T1, mArAT (Mycobacterium tuberculosis, UniProt P9WML5).
T1 construct: gene pat

Data set [2] addresses T1, mArAT. This is another data set of the same source.
Data set [3] deals with T2, mHspAT (Mycobacterium tuberculosis, UniProt P9WML7).
T2 construct: gene hisC; recombinant, vector pYUB1062, over-expressed in M. smegmatis mc2 4517; homodimer
In kind it is biochemical. The conditions noted are these: pH 8.4, 37 °C.

In data set [4] the target is T2, mHspAT. In kind it is binding.
In data set [5] the test system is N[C@H](COP(=O)(O)O)Cc1c[nH]cn1. In words: purified protein. The conditions noted are these: pH 8.4; 37.0 °C.
The test system of a further data set is N[C@@H](Cc1ccccc1)C(=O)O. Put plainly: purified protein. The conditions noted are these: pH 8.4; 37.0 °C.

T1 sequence (P9WML5 whole entry): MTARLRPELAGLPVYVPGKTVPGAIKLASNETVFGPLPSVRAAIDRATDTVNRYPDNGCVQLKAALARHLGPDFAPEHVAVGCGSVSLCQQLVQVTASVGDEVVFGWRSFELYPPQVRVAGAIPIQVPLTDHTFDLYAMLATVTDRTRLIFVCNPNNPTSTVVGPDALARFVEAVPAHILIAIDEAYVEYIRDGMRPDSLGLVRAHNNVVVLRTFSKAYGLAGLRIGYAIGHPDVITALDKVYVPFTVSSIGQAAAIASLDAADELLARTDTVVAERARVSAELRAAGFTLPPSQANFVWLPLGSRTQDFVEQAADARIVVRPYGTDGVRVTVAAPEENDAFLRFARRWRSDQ
T2 sequence (P9WML7 whole entry): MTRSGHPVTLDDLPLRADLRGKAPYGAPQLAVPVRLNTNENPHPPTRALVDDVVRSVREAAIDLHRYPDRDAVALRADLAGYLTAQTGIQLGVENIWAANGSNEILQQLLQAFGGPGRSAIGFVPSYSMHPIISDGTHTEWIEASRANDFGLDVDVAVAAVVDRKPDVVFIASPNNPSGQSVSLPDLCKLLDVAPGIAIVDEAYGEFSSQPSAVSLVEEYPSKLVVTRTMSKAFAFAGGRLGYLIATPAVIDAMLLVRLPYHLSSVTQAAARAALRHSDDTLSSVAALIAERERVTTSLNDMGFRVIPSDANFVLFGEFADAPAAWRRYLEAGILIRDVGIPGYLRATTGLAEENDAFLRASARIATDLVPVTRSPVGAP

As to `Cc1ncc(COP(=O)(O)O)c(CN)c1O` [PMP], at mArAT [1], the “crystal structure, 1.95 Å” value is “In the active site of mArAT, indigenously bound PMP and succinate were modelled”.

In the case of `O=C(O)CCC(=O)O` [succinate], the “crystal structure, 1.95 Å” value at mArAT [1] was “In the dicarboxylate bound form, succinate exists as a non-covalently linked moiety”.

For the molecule `N[C@@H](Cc1ccccc1)C(=O)O` [Phe], the “crystal structure, 1.98 Å” value on mArAT [2] is reported as “Phe is present in the active site of both the monomers of a homodimer”.

Regarding `O=S(=O)(O)CCN1CCOCC1` [MES], on mHspAT [3], the “Vo'/Vo” value is “concentration dependent inhibition of mHspAT-Hsp activity with MES”.

For the molecule `Cc1ncc(COP(=O)(O)O)c(C=O)c1O` [PLP], on mHspAT [4], the “crystal structure, 2.05 Å” value is recorded as “binding of the PLP as an internal aldimine via a Schiff’s base with Lys232 Nζ”. The “crystal structure, 1.98 Å” value on mArAT [2] was “it exists as a PLP-Phe external aldimine intermediate complex in one of the monomers”.

As to “mHspAT (Mycobacterium tuberculosis H37Rv)”, in data set [5], the Km came out at 0.42 ± 0.02 mM and the kcat/Km was 1.02e+06 ± 87000 M⁻¹ s⁻¹. In the data set with N[C@@H](Cc1ccccc1)C(=O)O, the Km stood at 7.1 ± 0.81 mM and the kcat/Km is 30000 ± 3000 M⁻¹ s⁻¹.

The values are drawn from article PMC4703992, “Crystal structures of Mycobacterium tuberculosis HspAT and ArAT reveal structural basis of their distinct substrate specificities” (Scientific Reports, 2016).
